Drawing on PubChem BioAssay (NCI), this text covers TGI for 20 compounds.

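Where inhibition never reached the appropriate level, the endpoint shown equals the highest concentration tested. Otherwise, values were interpolated linearly from a five-concentration, 48-hour dose response in 96-well plates. TGI: concentration producing complete growth inhibition.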

Holding throughout (assay): NCI anticancer screen, dose series, 48 h
Experiment [1] has as its system COLO 205 colon.
Experiment [2] deals with HCC-2998 colon.
For experiment [3], the system named is SF-295 CNS.
Experiment [4] deals with KM12 colon.
The test system of experiment [5] is SR leukemia.
For experiment [6], the system named is NCI/ADR-RES ovarian.
Experiment [7] deals with SF-268 CNS.
The test system of experiment [8] is MDA-MB-435.
The subject of experiment [9] is HCT-116 colon.
Experiment [10] concerns UACC-257 melanoma.

Take `Cc1nc(SCC(N)=O)c2sc(=S)n(-c3ccccc3)c2n1`: the TGI in [1], in experiment [2], in [3], in experiment [4], in experiment [5] and in experiment [6] was more than 10 µM throughout. For the same compound, the TGI in experiment [7], in experiment [8], in experiment [9] and in experiment [10] was more than 10 µM in each case.
Take `COc1cc2c3c(cc(Cl)nc3c1OC)C(=O)C(=O)N2`: the TGI in experiment [1] was 51 µM; in experiment [2], 33.6 µM; in experiment [3], 32.9 µM; in [4], 30.3 µM; in experiment [5], more than 29.6 µM; in experiment [6], 53.1 µM. For the same compound, the TGI worked out at 31.6 µM in [7], 3.37 µM in experiment [8], 13.6 µM in experiment [9] and 21.9 µM in [10].
Regarding `C#CCOCC12C=CC(O1)C1COC(=O)C12` (stereo not given), the TGI in experiment [1], in [2], in experiment [3], in [4], in [5] and in [6] was more than 100 µM throughout. For the same compound, the TGI in experiment [7], in experiment [8], in experiment [9] and in [10] was more than 100 µM each time.
With `O=C(Sc1c(-c2ccccc2)c(=O)n(-c2ccccc2)c(=S)n1-c1ccccc1)c1ccco1`, the TGI is more than 100 µM in [1]; more than 100 µM in experiment [2]; more than 100 µM in experiment [3]; more than 100 µM in [4]; more than 78.9 µM in [5]; more than 100 µM in experiment [6]. Moreover, the TGI is more than 100 µM in [7], more than 100 µM in [8], more than 100 µM in experiment [9] and more than 31.6 µM in experiment [10].
For the compound `COCC#C[C@@]1(O)CCCCC1CC(OC)OC` (stereo not given in full), the TGI in experiment [1], in [2], in experiment [3], in experiment [4], in [5] and in [6] was more than 100 µM in each case. The TGI in experiment [7], in experiment [8], in experiment [9] and in [10] was more than 100 µM throughout.
Regarding `CC[N+]1(C)CCC(O)(c2ccc(C)cc2)C(C(=O)c2ccc(C)cc2)C1` (stereo not given), the TGI in experiment [1] is 55.7 µM; in experiment [2] it was more than 100 µM; in experiment [3], more than 100 µM; in experiment [4] it was more than 100 µM; in experiment [5], 39.6 µM; in [6] it was more than 100 µM. Also, the TGI in [7], in experiment [8], in experiment [9] and in experiment [10] was more than 100 µM each time.
On to `CCOc1ccc(N=Nc2ccc3cc(/C(C)=N/NC(=O)/C(C#N)=C\c4ccc(N(CCC#N)CCC#N)cc4)c(=O)oc3c2)cc1`, for which the TGI in experiment [1], in [2], in experiment [3], in experiment [4], in experiment [5] and in experiment [6] was more than 10 µM throughout. The TGI in experiment [7], in [8], in [9] and in experiment [10] was more than 10 µM throughout.
In the case of `CCOC(=O)/C=C(/C=C\COC1CCCCO1)c1ccccc1` (stereo not given), the TGI is more than 100 µM in [1]; more than 100 µM in experiment [2]; 76.1 µM in experiment [3]; 79.3 µM in [4]; 53.8 µM in experiment [5]; 95.7 µM in experiment [6]. Also, the TGI in [7] is more than 100 µM; in experiment [8], more than 100 µM; in experiment [9], 29.5 µM; in experiment [10], more than 100 µM.
As to `Clc1cc(C(c2cc(Cl)sc2Cl)c2cc(Cl)sc2Cl)c(Cl)s1`, the TGI in [1], in experiment [2], in experiment [3], in experiment [4], in [5] and in [6] was more than 100 µM each time. Moreover, the TGI in experiment [7], in experiment [8], in [9] and in experiment [10] was more than 100 µM each time.
For `O=C1CS/C(=N/N=C/c2cn(Cc3ccc(Cl)cc3Cl)c3ccccc23)N1`, the TGI was more than 100 µM in [1]; 92.3 µM in experiment [2]; more than 100 µM in experiment [3]; more than 100 µM in [4]; more than 100 µM in experiment [5]; more than 100 µM in experiment [6]. The TGI in [7], in experiment [8], in experiment [9] and in [10] was more than 100 µM throughout.
`N#C/C(=C\c1cccc(Br)c1)c1nc2ccccc2c(=O)[nH]1`: the TGI in experiment [1], in experiment [2], in experiment [3], in experiment [4], in experiment [5] and in experiment [6] was more than 100 µM throughout. The TGI in [7], in [8], in experiment [9] and in experiment [10] was more than 100 µM each time.
For `Cc1nnc2n1-c1ccccc1N(Cc1ccccc1)CC2`, the TGI in experiment [1] was more than 100 µM; in [2], more than 100 µM; in [3], more than 100 µM; in experiment [4] it was more than 100 µM; in [5], more than 100 µM; in [6], 69.2 µM. Besides, the TGI in [7], in experiment [8], in experiment [9] and in [10] was more than 100 µM throughout.
For the compound `Clc1ccc(OCc2nnc(COc3ccc(OCc4nnc(COc5ccc(Cl)cc5Cl)o4)c(Cl)c3)o2)c(Cl)c1`, the TGI in experiment [1] is 74.9 µM; in experiment [2] it was 97.3 µM; in [3] it was more than 100 µM; in [4], more than 100 µM; in experiment [5] it was 36.6 µM; in experiment [6] it was 66.7 µM. For the same compound, the TGI is 64.3 µM in experiment [7], more than 100 µM in experiment [8], more than 100 µM in experiment [9] and more than 100 µM in [10].
Turning to `COc1ccc2c(c1)-c1c(c3cc(OC)ccc3n1CCN(C)C)CC2`, the TGI was 25.5 µM in experiment [1]; 20.2 µM in experiment [2]; 34.3 µM in experiment [3]; 36.7 µM in experiment [4]; 25.1 µM in experiment [5]; 32 µM in experiment [6]. Further, the TGI was 37.3 µM in [7], 26.4 µM in experiment [8], 24.4 µM in experiment [9] and 29.4 µM in experiment [10].
Consider `O=C(/C=C\Nc1ccccc1O)C(F)(F)F`, for which the TGI in experiment [1] was 71.1 µM; in experiment [2], more than 100 µM; in [3], more than 100 µM; in experiment [4], more than 100 µM; in [5] it was more than 100 µM; in experiment [6], more than 100 µM. The TGI in experiment [7], in experiment [8], in experiment [9] and in [10] was more than 100 µM each time.
As to `Nc1nncc2[nH]cnc12`, the TGI is more than 60.9 µM in experiment [1]; more than 100 µM in [2]; more than 100 µM in experiment [3]; more than 100 µM in [4]; more than 100 µM in experiment [5]; more than 100 µM in experiment [6]. For the same compound, the TGI in experiment [7], in experiment [8], in experiment [9] and in experiment [10] was more than 100 µM throughout.
With `Cn1nc2c(c1N)Cc1c(nn(C)c1N)-c1ccccc1-2`, the TGI in experiment [1], in [2], in experiment [3], in experiment [4], in [5] and in experiment [6] was more than 100 µM in each case. Also, the TGI in experiment [7], in experiment [8], in [9] and in experiment [10] was more than 100 µM throughout.
For the compound `S=c1[nH]nc(Cn2c3ccc(Br)cc3c3nc4ccccc4nc32)n1C1CCCCC1`, the TGI was more than 59.8 µM in experiment [1]; 61 µM in experiment [2]; 49.5 µM in experiment [3]; more than 100 µM in [4]; 60.6 µM in experiment [5]; more than 92 µM in [6]. Also, the TGI was more than 100 µM in experiment [7], more than 100 µM in [8], 40.2 µM in experiment [9] and more than 100 µM in [10].
`Cc1cccc(NS(=O)(=O)c2ccc(N=Nc3c(O)c(C(=O)O)cc4ccccc34)cc2)n1`: the TGI in experiment [1], in experiment [2], in [3], in [4], in experiment [5] and in experiment [6] was more than 100 µM each time. The TGI in experiment [7], in experiment [8], in experiment [9] and in experiment [10] was more than 100 µM in each case.
As to `COc1cc2[nH]c(=O)c3cc(-c4ccccc4)cc4c(Cl)nc(c1OC)c2c43`, the TGI in experiment [1] is 38.5 µM; in [2] it was more than 86.4 µM; in [3], more than 100 µM; in [4] it was more than 100 µM; in experiment [5], more than 100 µM; in experiment [6], more than 38.3 µM. The TGI in experiment [7] was more than 55.9 µM; in experiment [8] it was 8.84 µM; in experiment [9], 12.9 µM; in [10], 21.6 µM.
